{"source": "paper PMC11111636", "about": "(EJNMMI Radiopharmacy and Chemistry, 2024)", "key": {"U2OS.SSTR2 cells": {"system": "U2OS.SSTR2 cells", "test": "Uptake/internalization studies in U2OS.SSTR2 cells", "format": "cell-based, human", "method": "Cells were seeded in 6-well plates 24 h before the experiment (7 × 10^5 cells/well). […] The membrane-bound fraction was collected by incubating cells with an acid buffer (50 mM glycine, 100 mM NaCl, pH 2.8) for 10 min at rt. The internalized fraction was determined by lysing the cells with 1 M NaOH for 5 min at rt. Both fractions were measured in a gamma counter, and data were analyzed in GraphPad Prism v9 and expressed as percentage of added dose."}, "[1]": {"system": "H69-xenograft Balb/c nu/nu mice", "test": "Ex vivo biodistribution in H69-tumor bearing mice", "settings": "for Uptake in Tumor: i.v., n = 4", "method": "(§1) Six-week‐old female Balb/c nu/nu‐specific mice (Janvier Labs, Le Genest‐Saint‐Isle, France) were housed in individually ventilated cages (4 mice/cage). Upon arrival, mice were acclimated for one week, with access to food and water ad libitum. Mice were subcutaneously inoculated on the right shoulder with NCI-H69 cells (5 × 10^6 cells) suspended in 100 μL of 1/3 Matrigel (Corning Inc.; Corning, NY, USA) and 2/3 Hank’s balanced salt solution (Gibco; Paisley, UK). NCI-H69 xenografts were allowed to grow for 2 weeks.\n(§2) At 3 selected time points (1, 4 and 24 h; n = 4) p.i., blood was collected via retro-orbital puncture under isoflurane/O2 anesthesia, after which the mice were sacrificed via cervical dislocation. The tumor and organs of interest (heart, lungs, liver, spleen, stomach, large intestine, small intestine, pancreas, kidneys, muscle, skin, bone) were excised, washed in PBS and blotted dry. […] To determine the total injected radioactivity per animal, a calibration curve with indium-111 was established using the gamma counter. The percentage of injected dose per gram (% ID/g) was determined for each tissue and corrected for both the injected activity and % ID present at the injection site (the tail). Then, the tumor and the organs were placed in a petri dish and ex vivo optical imaging was performed with the IVIS Spectrum system (Perkin Elmer, Waltham, MA, USA) using the following settings for all measurements: FOV 19.5 cm, medium binning, f2, 60 s exposure with an excitation/emission filter of 646 nm/662 nm. Living Image version 4.5.2 software (Perkin Elmer) was used to perform data analysis by drawing regions of interest around the organ/tissue to quantify the radiant efficiency {(photons/second/cm^2/steradian)/(μW/cm^2)}."}, "[2]": {"test": "Ex vivo biodistribution in H69-tumor bearing mice", "settings": "mouse, in vivo", "method": "as §1, §2"}}, "data": [{"smiles": "C[C@@H](O)[C@H](NC(=O)[C@@H]1CSSC[C@H](NC(=O)[C@@H](Cc2ccccc2)NC(=O)CN2CCN(CC(=O)O)CCN(CC(=O)O)CCN(CC(=O)O)CC2)C(=O)N[C@@H](Cc2ccc(O)cc2)C(=O)N[C@H](Cc2c[nH]c3ccccc23)C(=O)N[C@@H](CCCCN)C(=O)N[C@@H]([C@@H](C)O)C(=O)N1)C(=O)O", "note": "[[^111In]In-DOTA-TATE, metal not drawn, reference compound]", "values": [{"measurement": "Internalized fraction of radioactivity", "setting": "U2OS.SSTR2 cells; 10^-9 M, 90 min, 37 °C", "result": 94, "unit": "%"}, {"measurement": "Total uptake", "setting": "U2OS.SSTR2 cells; 10^-9 M, 90 min, 37 °C, % of added dose per 1,000,000 cells, n = 3", "result": "46.22 ± 4.58", "unit": "% AD"}, {"measurement": "Cell uptake with excess of unlabeled DOTA-TATE", "setting": "U2OS.SSTR2 cells; 50-fold excess DOTA-TATE", "result": "almost completely blocked"}, {"measurement": "Uptake in Tumor", "setting": "[1]; 1 h p.i.", "result": "5.55 ± 1.31", "unit": "% ID/g"}, {"measurement": "Tumor uptake reduction by co-injection of an excess of DOTA-TATE", "setting": "[1]; 4 h p.i., compared to the unblocked group", "result": 98, "unit": "%"}, {"measurement": "Uptake in Tumor", "setting": "[1]; 24 h p.i.", "result": "3.19 ± 0.29", "unit": "% ID/g"}, {"measurement": "tissue uptake at 4 h", "setting": "[2]; Uptake in Intestines, 4 h block (co-injected 50 nmol DOTA-TATE), n = 4", "result": "0.57 ± 0.35", "unit": "%ID/g"}, {"measurement": "tissue uptake at 4 h", "setting": "[2]; Uptake in Kidneys, 4 h block (co-injected 50 nmol DOTA-TATE), n = 4", "result": "7.75 ± 1.03", "unit": "%ID/g"}, {"measurement": "tissue uptake at 4 h", "setting": "[2]; Uptake in Liver, 4 h block (co-injected 50 nmol DOTA-TATE), n = 4", "result": "0.15 ± 0.08", "unit": "%ID/g"}, {"measurement": "tissue uptake at 4 h", "setting": "[2]; Uptake in Skin, 4 h block (co-injected 50 nmol DOTA-TATE), n = 4", "result": "0.28 ± 0.13", "unit": "%ID/g"}, {"measurement": "tissue uptake at 4 h", "setting": "[2]; Uptake in Stomach, 4 h block (co-injected 50 nmol DOTA-TATE), n = 4", "result": "0.1 ± 0.03", "unit": "%ID/g"}, {"measurement": "tissue uptake at 1 h", "setting": "[2]; iv, Uptake in Blood, 1 h p.i., n = 4", "result": "0.41 ± 0.12", "unit": "%ID/g"}, {"measurement": "tissue uptake at 24 h", "setting": "[2]; iv, Uptake in Blood, 24 h p.i., n = 4", "result": "0.04 ± 0.03", "unit": "%ID/g"}, {"measurement": "tissue uptake at 4 h", "setting": "[2]; iv, Uptake in Bones, 4 h p.i., n = 4", "result": "0.13 ± 0.03", "unit": "%ID/g"}, {"measurement": "tissue uptake at 24 h", "setting": "[2]; iv, Uptake in Bones, 24 h p.i., n = 4", "result": "0.14 ± 0.05", "unit": "%ID/g"}, {"measurement": "tissue uptake at 1 h", "setting": "[2]; iv, Uptake in Heart, 1 h p.i., n = 4", "result": "0.16 ± 0.08", "unit": "%ID/g"}, {"measurement": "tissue uptake at 4 h", "setting": "[2]; iv, Uptake in Heart, 4 h p.i., n = 4", "result": 0.04, "unit": "%ID/g"}, {"measurement": "tissue uptake at 1 h", "setting": "[2]; iv, Uptake in Intestines, 1 h p.i., n = 4", "result": "0.74 ± 0.3", "unit": "%ID/g"}, {"measurement": "tissue uptake at 4 h", "setting": "[2]; iv, Uptake in Intestines, 4 h p.i., n = 4", "result": "0.77 ± 0.24", "unit": "%ID/g"}, {"measurement": "tissue uptake at 24 h", "setting": "[2]; iv, Uptake in Intestines, 24 h p.i., n = 4", "result": "0.13 ± 0.01", "unit": "%ID/g"}, {"measurement": "tissue uptake at 1 h", "setting": "[2]; iv, Uptake in Kidneys, 1 h p.i., n = 4", "result": "12.2 ± 1.33", "unit": "%ID/g"}, {"measurement": "tissue uptake at 4 h", "setting": "[2]; iv, Uptake in Kidneys, 4 h p.i., n = 4", "result": "10.6 ± 0.39", "unit": "%ID/g"}, {"measurement": "tissue uptake at 24 h", "setting": "[2]; iv, Uptake in Kidneys, 24 h p.i., n = 4", "result": "6.93 ± 1.02", "unit": "%ID/g"}, {"measurement": "tissue uptake at 1 h", "setting": "[2]; iv, Uptake in Liver, 1 h p.i., n = 4", "result": "0.21 ± 0.03", "unit": "%ID/g"}, {"measurement": "tissue uptake at 4 h", "setting": "[2]; iv, Uptake in Liver, 4 h p.i., n = 4", "result": "0.16 ± 0.01", "unit": "%ID/g"}, {"measurement": "tissue uptake at 24 h", "setting": "[2]; iv, Uptake in Liver, 24 h p.i., n = 4", "result": "0.08 ± 0.01", "unit": "%ID/g"}, {"measurement": "tissue uptake at 1 h", "setting": "[2]; iv, Uptake in Lungs, 1 h p.i., n = 4", "result": "0.86 ± 0.09", "unit": "%ID/g"}, {"measurement": "tissue uptake at 4 h", "setting": "[2]; iv, Uptake in Lungs, 4 h p.i., n = 4", "result": "0.52 ± 0.13", "unit": "%ID/g"}, {"measurement": "tissue uptake at 4 h", "setting": "[2]; iv, Uptake in Muscle, 4 h p.i., n = 4", "result": 0.02, "unit": "%ID/g"}, {"measurement": "tissue uptake at 24 h", "setting": "[2]; iv, Uptake in Muscle, 24 h p.i., n = 4", "result": "0.01 ± 0.01", "unit": "%ID/g"}, {"measurement": "tissue uptake at 1 h", "setting": "[2]; iv, Uptake in Pancreas, 1 h p.i., n = 4", "result": "2.9 ± 0.6", "unit": "%ID/g"}, {"measurement": "tissue uptake at 4 h", "setting": "[2]; iv, Uptake in Pancreas, 4 h p.i., n = 4", "result": "1.3 ± 0.1", "unit": "%ID/g"}, {"measurement": "tissue uptake at 24 h", "setting": "[2]; iv, Uptake in Pancreas, 24 h p.i., n = 4", "result": "0.6 ± 0.05", "unit": "%ID/g"}, {"measurement": "tissue uptake at 1 h", "setting": "[2]; iv, Uptake in Skin", "result": "0.49 ± 0.26", "unit": "%ID/g"}, {"measurement": "tissue uptake at 4 h", "setting": "[2]; iv, Uptake in Skin, 4 h p.i., n = 4", "result": "0.29 ± 0.09", "unit": "%ID/g"}, {"measurement": "tissue uptake at 24 h", "setting": "[2]; iv, Uptake in Skin, 24 h p.i., n = 4", "result": "0.13 ± 0.02", "unit": "%ID/g"}, {"measurement": "tissue uptake at 24 h", "setting": "[2]; iv, Uptake in Spleen", "result": "0.11 ± 0.01", "unit": "%ID/g"}, {"measurement": "tissue uptake at 4 h", "setting": "[2]; iv, Uptake in Spleen, 4 h p.i., n = 4", "result": "0.13 ± 0.02", "unit": "%ID/g"}, {"measurement": "tissue uptake at 1 h", "setting": "[2]; iv, Uptake in Stomach, 1 h p.i., n = 4", "result": "1.84 ± 0.18", "unit": "%ID/g"}, {"measurement": "tissue uptake at 4 h", "setting": "[2]; iv, Uptake in Stomach, 4 h p.i., n = 4", "result": "1.23 ± 0.16", "unit": "%ID/g"}, {"measurement": "tissue uptake at 24 h", "setting": "[2]; iv, Uptake in Stomach, 24 h p.i., n = 4", "result": "0.51 ± 0.13", "unit": "%ID/g"}, {"measurement": "tissue uptake at 1 h", "setting": "[2]; iv, Uptake in Tumor, 1 h p.i., n = 4", "result": "~5", "unit": "%ID/g"}, {"measurement": "tissue uptake at 4 h", "setting": "[2]; iv, Uptake in Tumor, 4 h p.i., n = 4", "result": "5.47 ± 0.3", "unit": "%ID/g"}, {"measurement": "tissue uptake at 24 h", "setting": "[2]; iv, Uptake in Tumor, 24 h p.i., n = 4", "result": "~3", "unit": "%ID/g"}]}]}
